Data set [1] addresses T1, human β1-adrenergic receptor (Homo sapiens, UniProt P08588).
T1 construct: expressed in transfected cells; host or cells: CHO (Chinese hamster ovary) cells, pcDNA3
Description: Test Case 2-C: human β1-adrenergic receptor agonist activity (Cerep cellular functional GPCR, beta 1). The conditions noted are these: concentration 10 μM, isoproterenol = 100%. It is filed as cell-based. The source says:
(§1) Measurement of Human β1-Adrenergic Receptor Agonist Activity

The target in data set [2] is T2, human β2-adrenergic receptor (Homo sapiens, UniProt P07550).
T2 construct: expressed in transfected cells; host or cells: CHO (Chinese hamster ovary) cells, pcDNA3
Kind of data set: Test Case 3-C: human β2-adrenergic receptor agonist activity (Cerep cellular functional GPCR, beta 2). It is filed as cell-based. Conditions: concentration 10 μM, isoproterenol = 100%. The text has this: (§2) Measurement of Human β2-Adrenergic Receptor Agonist Activity

Data set [3] has as its target T3, human α1A-adrenergic receptor (Homo sapiens, UniProt P35348).
T3 sequence (P35348 1-466): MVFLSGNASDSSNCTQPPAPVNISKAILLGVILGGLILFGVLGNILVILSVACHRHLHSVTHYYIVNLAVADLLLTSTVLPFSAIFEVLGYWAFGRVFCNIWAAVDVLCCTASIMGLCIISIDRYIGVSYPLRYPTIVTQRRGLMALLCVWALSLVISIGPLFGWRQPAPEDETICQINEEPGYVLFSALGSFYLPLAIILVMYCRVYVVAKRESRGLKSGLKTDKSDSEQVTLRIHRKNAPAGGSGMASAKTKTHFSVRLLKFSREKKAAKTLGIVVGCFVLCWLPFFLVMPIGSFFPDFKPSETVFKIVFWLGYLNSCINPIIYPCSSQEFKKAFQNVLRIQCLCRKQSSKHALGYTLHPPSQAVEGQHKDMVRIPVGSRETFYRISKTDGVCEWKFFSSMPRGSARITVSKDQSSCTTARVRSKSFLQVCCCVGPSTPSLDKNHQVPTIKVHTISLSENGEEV
Description: Test Case 4-B: human α1A-adrenergic receptor agonist activity (Cerep cellular functional GPCR, alpha 1A). The class given is cell-based. Also noted: expressed in transfected cells. Conditions: concentration 10 μM; for α1 receptor % of Control Agonist Response, Control; Epinephrine: epinephrine = 100%; for α1 receptor % of Control Agonist Response, Control; Norepinephrine: norepinephrine = 100%. The source says: Measurement of Human α1A-Adrenergic Receptor Agonist Activity
The human α1A-adrenergic receptor agonist activity] can be measured by […] Functional GPCR·Gs, alpha 1A (Ref. 722-36a) listed on p. 52 of the Cerep 2008 CATALOG IN VITRO PHARMACOLOGY & ADME-TOX.

Data set [4] has as its target T4, human β3-adrenergic receptor (Homo sapiens, UniProt P13945).
T4 construct: A full-length human β3 gene is obtained from a human genomic library (made by Clontech) using this as the probe; expressed in transfected cells; host or cells: CHO (Chinese hamster ovary) cells, pcDNA3
Description: Test Case 1-B: human β3-adrenergic receptor agonist activity (cAMP-Screen, 96-well). It is filed as cell-based. Conditions: for Emax: 0.5 h, read-out: β3 receptor I.A.; for EC50 / β3 receptor I.A.: Test Case 1-B; for EC50: CHO cells, cAMP; for β3 receptor I.A.: maximum response of isoproterenol = 100%. In a few lines:
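CHO cells stably transfected with full-length human β3 gene, serum-starved 15 min, then exposed to serially diluted compound in Ham's F-12 with 100 mmol/L HEPES and 1 mmol/L IBMX (diluent concentrations) for 30 min. Cells lysed 30 min at 37 °C; cAMP quantified by cAMP-Screen immunoassay.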

The target of data set [5] is T1, human β1-adrenergic receptor. Description: Test Case 2-B: human β1-adrenergic receptor agonist activity. The class given is cell-based. Conditions: for Emax: read-out: β1 receptor I.A.; for β1 receptor I.A.: Test Case 2-B, maximum response of isoproterenol = 100%. As for the experimental part: as §1
The human β1-adrenergic receptor agonist activity is measured by the same method as in Test Case 1-B using CHO (Chinese hamster ovary) cells transfected by a human β1 gene inserted in pcDNA3 (Invitrogen).

Data set [6] concerns the target T2, human β2-adrenergic receptor. Kind of data set: Test Case 3-B: human β2-adrenergic receptor agonist activity. The class given is cell-based. Conditions: for Emax: read-out: β2 receptor I.A.; for β2 receptor I.A.: Test Case 3-B, maximum response of isoproterenol = 100%. As for the experimental part: as §2
The human β2-adrenergic receptor agonist activity is measured by the same method as in Test Case 1-B using CHO (Chinese hamster ovary) cells transfected by a human β2 gene inserted in pcDNA3 (Invitrogen).

The next data set relates to Male C57BL/6 Cr mice. Kind of data set: Test Case 10: mouse piloerection test. The class given is in vivo. Conditions: 10 mg/kg i.v. As for the experimental part:
Male C57BL/6 Cr mice (Japan SLC) are used. The dissolved compound is administered rapidly via a caudal vein. The animal is placed on the observation stand 5, 15, 30, and 60 minutes after administration, and the state of piloerection is observed. The state of piloerection is evaluated by the following 7-level scoring system according to the examples by the method of Irwin (Psychopharmacologia 1968, 13; 222-257).
Scoring system: “Score 0”: No piloerection at all; “Score 1”: Slight piloerection (piloerection on part of the body such as the back or neck); “Score 2”: Moderate piloerection (piloerection over the entire body); “Score 3”: Marked piloerection (piloerection over the entire body, conspicuous to the extent that the skin can be seen).
“Score 0.5” is between “Score 0” and “Score 1” “Score 1.5” is between […]. “Score 2.5” is between “Score 2” and “Score 3.”

Data set [7] addresses T3, human α1A-adrenergic receptor. Description: Test Case 4-A: human α1A-adrenergic receptor agonist activity (HEK293, Ca flux, Fura-2). Further details: expressed in transfected cells; host or cells: HEK293 cells, pcDNA3.1. It is filed as cell-based. The conditions noted are these: for Emax: HEK293, read-out: α1A receptor I.A.; for α1A receptor I.A.: maximum response of norepinephrine = 100%. In outline:
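Fura-2AM-loaded HEK293 cells transfected with human α1A were preincubated for 180 s. Compound (sample plate 10^−5 to 10^−12 M) was added after ~30 s of 340/380 nm excitation ratio reading (500 nm emission, 2-s intervals), followed by 270 s more reading. Ca flux is the peak height: maximum ratio after addition minus the pre-addition ratio.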

T4 sequence (P13945 whole entry): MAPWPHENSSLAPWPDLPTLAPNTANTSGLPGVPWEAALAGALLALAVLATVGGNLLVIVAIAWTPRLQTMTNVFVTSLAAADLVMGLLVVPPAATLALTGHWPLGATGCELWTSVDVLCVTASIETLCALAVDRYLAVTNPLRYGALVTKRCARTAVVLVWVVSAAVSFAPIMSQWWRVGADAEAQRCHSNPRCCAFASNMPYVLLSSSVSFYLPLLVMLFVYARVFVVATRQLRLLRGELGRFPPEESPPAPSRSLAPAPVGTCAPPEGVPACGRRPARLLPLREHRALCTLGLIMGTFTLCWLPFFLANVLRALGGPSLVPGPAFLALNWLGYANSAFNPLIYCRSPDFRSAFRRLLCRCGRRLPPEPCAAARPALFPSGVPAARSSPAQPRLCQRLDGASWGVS
T1 sequence (P08588 whole entry): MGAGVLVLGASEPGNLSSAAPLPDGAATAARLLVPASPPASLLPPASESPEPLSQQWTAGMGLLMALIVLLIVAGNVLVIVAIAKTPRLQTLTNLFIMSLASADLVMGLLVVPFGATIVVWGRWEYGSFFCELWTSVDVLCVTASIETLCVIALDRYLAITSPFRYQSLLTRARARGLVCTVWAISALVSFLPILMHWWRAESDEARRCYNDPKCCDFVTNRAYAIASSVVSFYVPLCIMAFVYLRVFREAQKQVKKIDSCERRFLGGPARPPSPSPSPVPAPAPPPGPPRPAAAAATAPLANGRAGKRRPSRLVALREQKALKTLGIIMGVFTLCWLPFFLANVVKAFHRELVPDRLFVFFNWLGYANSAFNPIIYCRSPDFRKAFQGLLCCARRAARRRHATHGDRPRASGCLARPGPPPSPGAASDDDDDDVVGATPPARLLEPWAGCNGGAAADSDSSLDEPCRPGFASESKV

On to `O=S(=O)(Nc1cccc([C@@H](O)CNCCOc2ccc3c(Cl)n[nH]c3c2)c1)c1cccnc1` [ex156, (R)-N-(3-(2-(2-(3-chloroindazol-6-yloxy)ethylamino)-1-hydroxyethyl)phenyl)pyridine-3-sulfonamide], for which the “β1 receptor % of Control Agonist Response” value in data set [1] stood at 12%. Further, in data set [2] (10 µM), the “β2 receptor % of Control Agonist Response” value was found to be 3.5%. In data set [3] (10 µM), the “α1 receptor % of Control Agonist Response, Control; Epinephrine” value came to 3.9% and the “α1 receptor % of Control Agonist Response, Control; Norepinephrine” value is listed as 3.4%.
For “(R)-N-(3-(2-(2-(3- ethylindazol-6- yloxy)ethylamino)-1- hydroxyethyl)phenyl)- ? -methyli ? zole-4- sulfonamide [ex134]”, the “β1 receptor % of Control Agonist Response” value in data set [1] came out at 7.0%. The “β2 receptor % of Control Agonist Response” value in data set [2] turned out to be 2.0%. Besides, in data set [3], the “α1 receptor % of Control Agonist Response, Control; Epinephrine” value worked out at 7.0% and the “α1 receptor % of Control Agonist Response, Control; Norepinephrine” value is given as 6.0%.
By EC50 is commonly meant the midpoint of the concentration-response curve. In the case of `CCc1n[nH]c2cc(OCCNC[C@H](O)c3cccc(NS(=O)(=O)C4CC4)c3)ccc12` [ex124, (R)-N-(3-(2-(2-(3-ethylindazol-6-yloxy)ethylamino)-1-hydroxyethyl)phenyl)-cyclopropanesul-fonamide], the Emax in data set [4] was 52%; in data set [5], -6%; in data set [6], -1%; in data set [7], 0%. Also, the midpoint of the response in data set [4], the EC50, lay at 13 nM. Besides, the “number of experimental animals matching Score 0 (no piloerection)” value in the data set on Male C57BL/6 Cr mice (n=4, observation time 5 min) was determined as 2; in the data set on Male C57BL/6 Cr mice (n=4, observation time 30 min) it was 2; in the data set on Male C57BL/6 Cr mice (n=4, observation time 60 min), 2. For the same compound, the “number of experimental animals matching Score 0.5” value is given as 1 with Male C57BL/6 Cr mice (n=4, observation time 5 min); 3 in the data set on Male C57BL/6 Cr mice (n=4, observation time 15 min); 2 in the data set on Male C57BL/6 Cr mice (n=4, observation time 30 min); 2 in the data set on Male C57BL/6 Cr mice (n=4, observation time 60 min). Moreover, the “number of experimental animals matching Score 1 (slight piloerection)” value came to 1 in the data set with Male C57BL/6 Cr mice (n=4, observation time 5 min) and 1 in the data set on Male C57BL/6 Cr mice (n=4, observation time 15 min).
Regarding `COc1n[nH]c2cc(OCCNC[C@H](O)c3cccc(NS(=O)(=O)c4cc(N)ccc4F)c3)ccc12` [ex6, (R)-5-amino-2-fluoro-N-(3-(1-hydroxy-2-(2-(3-methoxyindazol-6-yloxy)ethylamino)ethyl)phenyl)benzenesulfonamide], the Emax was found to be 84% in data set [4], 10% in data set [5], 7% in data set [6] and 0% in data set [7]. Moreover, the EC50 in data set [4] was determined as 0.7 nM. Besides, the “number of experimental animals matching Score 0 (no piloerection)” value in the data set with Male C57BL/6 Cr mice (n=4, observation time 5 min) is recorded as 4; in the data set with Male C57BL/6 Cr mice (n=4, observation time 15 min) it was 4; in the data set with Male C57BL/6 Cr mice (n=4, observation time 30 min), 4; in the data set on Male C57BL/6 Cr mice (n=4, observation time 60 min), 4.
Regarding `COc1n[nH]c2cc(OCCNC[C@H](O)c3cccc(NS(=O)(=O)c4cccc(N)c4)c3)ccc12` [ex1, (R)-3-amino-N-(3-(1-hydroxy-2-(2-(3-methoxyindazol-6-yloxy)ethylamino)ethyl)phenyl)benzenesulfonamide], the Emax in data set [4] was found to be 110%; in data set [5], 6%; in data set [6] it was 1%; in data set [7] it was 0%. The response in data set [4] was half-maximal at 0.52 nM (EC50).
On to `COc1n[nH]c2cc(OCCNC[C@H](O)c3cccc(NS(=O)(=O)c4cccc(Cl)c4)c3)ccc12` [ex42, (R)-3-chloro-N-(3-(1-hydroxy-2-(2-(3-methoxyindazol-6-yloxy)ethylamino)ethyl)phenyl) benzenesulfonamide], for which, in data set [4], the EC50 was determined as 3.8 nM and the “β3 receptor I.A.” value worked out at 83%. For the same compound, the “β1 receptor I.A.” value in data set [5] was found to be 4%. For the same compound, the “β2 receptor I.A.” value in data set [6] is given as 0%. Also, the “α1A receptor I.A.” value in data set [7] (Test Case 4-A, Table 4) stood at 0%.
On to `CC(C)c1n[nH]c2cc(OCCNC[C@H](O)c3cccc(NS(=O)(=O)c4cccc(N)c4)c3)ccc12` [ex231, (R)-3-amino-N-(3-(1-hydroxy- ? -(2-( ? iso-propylindazol- ? - yloxy)ethylamino)ethyl)phenyl) benzene ? fonamide], for which the Emax turned out to be 124% in data set [4], 18% in data set [5], 3% in data set [6] and 0% in data set [7]. Further, in data set [4], the EC50 was 0.2 nM.
For the compound `COc1n[nH]c2cc(OCCNC[C@H](O)c3cccc(NS(=O)(=O)c4cccc(Cl)c4)c3)ccc12` [ex13, (R)-3-chloro-N-(3-(1-hydroxy-2-(2-( ? - methoxyindazol-6-yloxy)ethylamino)ethyl)phenyl) benzenesulfonamide], the Emax was 82% in data set [4], 4% in data set [5], -4% in data set [6] and 0% in data set [7]. The compound also yielded a concentration for a half-maximal effect (EC50) in data set [4] of 9.4 nM.
As for `O=S(=O)(Nc1cccc([C@@H](O)CNCCOc2ccc3c(Cl)n[nH]c3c2)c1)C1CC1` [ex152], the Emax in data set [4] was 104%; in data set [5], 3%; in data set [6], 15%; in data set [7], 8%. The same compound returned a concentration for a half-maximal effect (EC50) in data set [4] of 22 nM.
The like results for `Nc1cccc(S(=O)(=O)Nc2cccc([C@@H](O)CNCCOc3ccc4c(OC(F)F)n[nH]c4c3)c2)c1` [ex104] were, in that order, 116%, 8%, 4%, 0% and 0.42 nM.
`COc1n[nH]c2cc(OCCNC[C@H](O)c3cccc(NS(=O)(=O)C4CC4)c3)ccc12` [ex47, (R)-N-(3-(1-hydroxy-2-(2-(3-methoxyindazol-6-yloxy)-ethylamino)ethyl)phenyl)cyclo-propanesulfonamide]: in data set [4], the half-maximal effective concentration (EC50) was determined as 41 nM and the “β3 receptor I.A.” value is listed as 72%. In data set [5], the “β1 receptor I.A.” value is recorded as 3%. Further, the “β2 receptor I.A.” value in data set [6] was determined as 16%. In data set [7] (Test Case 4-A, HEK293 cells, Ca flux, Table 4), the EC50 was 1220 nM. The “α1A receptor I.A.” value in data set [7] (Test Case 4-A, Table 4) was 28%.

These data come from patent US20120225909A1, “INDAZOLE ANALOG” (priority 2009, published 2012).
